Values of other authors in patent US11439614B2, “Fish egg extracts, omega-3 lipid-based compositions and uses thereof” (BIOFLASH INC., priority 2017, dated 2022).

System: ADHD symptoms

Row | Structure (SMILES) | Hyperactivity (200 mg daily for 6 months, 75 children with ADHD, vs conventional treatment (Starobat-Hermelin et al, 1997)) | Help for children with ADHD (150 mg for 12 weeks alone or 55 mg for 6 weeks with a conventional drug, 440 children)
1 | [Mg+2] [magnesium] | decreased Hyperactivity | 
2 | O=S(=O)([O-])[O-].[Zn+2] [zinc sulfate] |  | could significantly help children with this condition
